The text below walks through data of US20250177396A1, “POLO-LIKE KINASE 4 (PLK4) INHIBITORS, PHARMACEUTICAL COMPOSITIONS, METHODS OF PREPARATION AND USES THEREOF” (Repare Therapeutics Inc., priority 2022, published 2025).

The structures appear in SMILES notation.

The experiment addresses T1, PLK4 (Homo sapiens, UniProt O00444).
T1 construct: expressed in transfected cells; host or cells: HEK293 T cells (ATCC CRL-3216)
T1 sequence (O00444 1-970): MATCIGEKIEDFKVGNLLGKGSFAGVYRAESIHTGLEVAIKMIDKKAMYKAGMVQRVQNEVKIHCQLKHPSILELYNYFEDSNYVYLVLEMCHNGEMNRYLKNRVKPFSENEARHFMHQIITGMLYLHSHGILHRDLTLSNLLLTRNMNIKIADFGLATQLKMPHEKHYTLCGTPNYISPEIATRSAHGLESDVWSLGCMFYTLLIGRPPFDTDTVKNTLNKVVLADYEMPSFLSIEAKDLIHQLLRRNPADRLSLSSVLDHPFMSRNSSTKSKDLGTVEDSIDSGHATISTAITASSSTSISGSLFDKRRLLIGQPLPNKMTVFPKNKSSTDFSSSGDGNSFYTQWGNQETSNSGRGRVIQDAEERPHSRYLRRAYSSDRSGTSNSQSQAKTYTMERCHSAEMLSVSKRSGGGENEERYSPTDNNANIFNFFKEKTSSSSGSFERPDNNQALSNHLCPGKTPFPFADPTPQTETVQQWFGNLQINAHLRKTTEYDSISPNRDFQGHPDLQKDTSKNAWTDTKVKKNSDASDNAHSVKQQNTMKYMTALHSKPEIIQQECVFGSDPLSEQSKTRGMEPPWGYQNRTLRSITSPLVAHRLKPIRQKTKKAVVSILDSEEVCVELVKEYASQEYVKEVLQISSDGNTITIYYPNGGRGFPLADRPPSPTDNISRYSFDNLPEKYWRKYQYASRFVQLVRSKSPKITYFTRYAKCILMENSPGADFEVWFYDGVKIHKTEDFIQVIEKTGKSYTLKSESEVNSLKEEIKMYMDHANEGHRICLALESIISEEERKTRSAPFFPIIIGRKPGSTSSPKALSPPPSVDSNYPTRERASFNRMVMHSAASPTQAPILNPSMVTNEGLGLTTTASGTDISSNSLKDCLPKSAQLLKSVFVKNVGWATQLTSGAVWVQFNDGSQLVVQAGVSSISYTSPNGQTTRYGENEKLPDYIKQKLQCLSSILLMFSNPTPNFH
As to the kind of experiment: PLK4 NanoBRET target engagement assay. Format: binding. The following applies: HEK293 T cells transfected with PLK4 NanoLuc fusion vector; K-5 tracer; 2 hrs incubation. As to the method:
To determine the affinity of Compounds described herein in the PLK4 NanoBRET target engagement assay, HEK293 T cells (ATCC Product Number CRL-3216) are first transfected with the PLK4 NanoLuc fusion vector DNA and Transfection carrier DNA using the Fugene HD Transfection reagent in Opti-MEM No Phenol Red buffer. After an overnight incubation in a 37° C./5% CO2 incubator, the transfected HEK293 T cells are trypsinized, counted, and resuspended in Opti-MEM No Phenol Red buffer at a concentration of 200000 cells/mL. White 96-well plates are then plated with 85 μL of cells (17000 cells/well) to which 5 μL of the 20×K-5 tracer solution diluted in tracer dilution buffer is added. Finally, 10 μL of the 10× compounds are added and the plates and then incubated in a 37° C./5% CO2 incubator for 2 hrs. After the incubation, a 50 uL 3× solution of the substrate/inhibitor mix is added to the cells. The plate is then transferred in the Envision plate reader where the Acceptor emission (610 nm) and the Donor emission (450 nm) are measured.
The IC50 of compounds is determined as follows: • 1. The ratio between the Acceptor emission (610 nm)/Donor emission (450 nm) is calculated. • 2. This ratio is then multiplied by 1000 to obtain the mBRET units (multiplying by 1000 is an arbitrary step that simply makes the data easier to interpret; it has no impact on the data set itself) • 3. The mBRET units are then used in Scigilian Analyze software (https://analyze.scigilian.io) to determine the IC50 value using a 4-parameter fit analysis.

`COc1c(Nc2cc(C)[nH]n2)nc(N(C)c2ccc(S(=O)(=O)C(C)(C)C)cc2)nc1-c1cnn(C)c1` [Compound 86] returned a concentration for half-maximal inhibition (IC50) of 120 nM.

In the case of `COc1c(Nc2cc(C)[nH]n2)nc(N(C)c2ccc(S(=O)(=O)C(C)C)cc2)nc1-c1cnn(C)c1` [Compound 87], the IC50 came out at 160 nM. The figure for `COCCN(c1nc(Nc2cc(C)[nH]n2)c(OC)c(-c2cnn(C)c2)n1)c1ccc(S(C)(=O)=O)cc1F` [Compound 88] is 290 nM.

Consider `COc1c(Nc2cc(C)[nH]n2)nc(-n2ccc3cc(S(C)(=O)=O)ccc32)nc1-c1cnn(C)c1` [Compound 89], for which the IC50 came to 1700 nM. Then `COC(=O)CN(c1nc(Nc2cc(C)[nH]n2)c(OC)c(-c2cnn(C)c2)n1)c1ccc(S(C)(=O)=O)cc1F` [Compound 90], with 370 nM; and `COc1c(Nc2cc(C)[nH]n2)nc(N(CC(=O)O)c2ccc(S(C)(=O)=O)cc2F)nc1-c1cnn(C)c1` [Compound 91], with 5400 nM; and `Cc1cc(Nc2nc(N(C)c3c(F)cc(S(C)(=O)=O)cc3F)cc(-c3cnn(C)c3)c2C2CC2)n[nH]1` [Compound 92], with 53 nM.

The compound `Cc1cc(Nc2nc(N(C)c3ccc(S(C)(=O)=O)cc3F)cc(-c3cnn(C)c3)c2C2CC2)n[nH]1` [Compound 93] registered an IC50 of 78 nM. Then `Cc1cc(Nc2nc(Sc3ccc(S(C)(=O)=O)cc3F)cc(-c3cnn(C)c3)c2C2CC2)n[nH]1` [Compound 94], with 110 nM; and `COc1c(Nc2cc(C)[nH]n2)nc(Sc2ccc(S(C)(=O)=O)cc2F)c(F)c1-c1cnn(C)c1` [Compound 95], with 170 nM.

As to `COc1c(Nc2cc(C)[nH]n2)nc(Nc2ccc(S(C)(=O)=O)cc2C)c(C)c1-c1cnn(C)c1` [Compound 96], the IC50 amounted to 670 nM. As for `COc1c(Nc2cc(C)[nH]n2)nc(Sc2ccc(S(C)(=O)=O)cc2F)c(N(C)C)c1-c1cnn(C)c1` [Compound 97], the IC50 turned out to be 1200 nM.

For the compound `COc1c(Nc2cc(C)[nH]n2)nc(N(C)c2ccc(S(C)(=O)=O)cc2F)c(C#N)c1-c1cnn(C)c1` [Compound 98], the half-inhibitory concentration (IC50) was determined as 2000 nM. On to `COc1c(Nc2cc(C)[nH]n2)nc(N(C)c2ccc(S(C)(=O)=O)cc2F)c(C)c1-c1cnn(C)c1` [Compound 99], for which the IC50 was determined as 4800 nM. The figure for `COc1c(Nc2cc(C)[nH]n2)nc(Sc2ccc(S(C)(=O)=O)cc2F)c(Cl)c1-c1cnn(C)c1` [Compound 100] is 240 nM. `COc1c(Nc2cc(C)[nH]n2)nc(Sc2ccc(S(C)(=O)=O)cc2F)c(C#N)c1-c1cnn(C)c1` [Compound 101] showed a half-maximal inhibitory concentration (IC50) of 120 nM.

Compound `COc1c(Nc2cc(C)[nH]n2)nc(Sc2ccc(S(C)(=O)=O)cc2F)c(N)c1-c1cnn(C)c1` [Compound 102] showed an IC50 of 840 nM. The figure for `Cc1cc(Nc2nc(N(C)c3c(F)cc(S(C)(=O)=O)cc3F)nc(-c3c[nH]cn3)c2C2CC2)n[nH]1` [Compound 103] is 9 nM; for `Cc1cc(Nc2nc(N(C)c3c(F)cc(S(C)(=O)=O)cc3F)nc(-c3cnn(C)n3)c2C2CC2)n[nH]1` [Compound 104] it is 15 nM. The figure for `Cc1cc(Nc2nc(N(C)c3ccc(S(C)(=O)=O)cc3F)nc(-n3cncn3)c2C2CC2)n[nH]1` [Compound 105] is 740 nM; for `Cc1cc(Nc2nc(N(C)c3c(F)cc(S(C)(=O)=O)cc3F)nc(-c3cc[nH]n3)c2C2CC2)n[nH]1` [Compound 106] it is 6 nM; for `Cc1cn(-c2nc(N(C)c3ccc(S(C)(=O)=O)cc3F)nc(Nc3cc(C)[nH]n3)c2C2CC2)cn1` [Compound 107] it is 120 nM. As to `Cc1cc(Nc2nc(N(C)c3ccc(S(C)(=O)=O)cc3F)nc(-c3cnn4cccnc34)c2C2CC2)n[nH]1` [Compound 108, 5-cyclopropyl-N^2-(2-fluoro-4-(methylsulfonyl)phenyl)-N^2-methyl-N^4-(5-methyl-1H-pyrazol-3-yl)-6-(pyrazolo[1,5-a]pyrimidin-3-yl)pyrimidine-2,4-diamine], the IC50 amounted to 16 nM. The figure for `Cc1cc(Nc2nc(N(C)c3ccc(S(C)(=O)=O)cc3F)nc(-c3cnn(C)n3)c2C2CC2)n[nH]1` [Compound 109] is 49 nM; for `Cc1cc(Nc2nc(N(C)c3ccc(S(C)(=O)=O)cc3F)nc(N3CCOc4ccncc43)c2C2CC2)n[nH]1` [Compound 110, 5-cyclopropyl-6-(2,3-dihydro-4H-pyrido[4,3-b][1,4]oxazin-4-yl)-N^2-(2-fluoro-4-(methylsulfonyl)phenyl)-N^2-methyl-N^4-(5-methyl-1H-pyrazol-3-yl)pyrimidine-2,4-diamine] it is 160 nM. `Cc1cc(Nc2nc(N(C)c3ccc(S(C)(=O)=O)cc3F)nc(N3CCCC(S(C)(=O)=O)C3)c2C2CC2)n[nH]1` (stereo not shown) [Compound 111, 5-cyclopropyl-N^2-(2-fluoro-4-(methylsulfonyl)phenyl)-N^2-methyl-N^4-(5-methyl-1H-pyrazol-3-yl)-6-(3-(methylsulfonyl)piperidin-1-yl)pyrimidine-2,4-diamine] yielded a 50% inhibitory concentration (IC50) of 43 nM. Compound `Cc1cnn(-c2nc(N(C)c3ccc(S(C)(=O)=O)cc3F)nc(Nc3cc(C)[nH]n3)c2C2CC2)c1` [Compound 112] came in with an IC50 of 110 nM. Then `Cc1ccn(-c2nc(N(C)c3ccc(S(C)(=O)=O)cc3F)nc(Nc3cc(C)[nH]n3)c2C2CC2)n1` [Compound 113], with 150 nM. Consider `Cc1cc(Nc2nc(N(C)c3c(F)cc(S(C)(=O)=O)c(C)c3F)nc(-c3cnn(C)c3)c2C2CC2)n[nH]1` [Compound 114], for which inhibition was half-maximal at 10 nM (IC50).

`Cc1cc(Nc2nc(N(C)c3c(F)cc(S(C)(=O)=O)cc3F)nc(-c3cn(C)nc3C#N)c2C2CC2)n[nH]1` [Compound 115] yielded a concentration for half-maximal inhibition (IC50) of 22 nM.

`COc1c(Nc2cc(C)[nH]n2)nc(N(C)c2cc(Cl)c(S(C)(=O)=O)cc2F)nc1-c1cnn(C)c1` [Compound 116]: half-maximal inhibition (IC50) required 68 nM. Then `COc1c(Nc2cc(C)[nH]n2)nc(N(C)c2ccc(S(C)(=O)=O)c(Cl)c2F)nc1-c1cnn(C)c1` [Compound 117], with 220 nM; and `Cc1cc(Nc2nc(N(C)c3c(F)cc(S(C)(=O)=O)cc3Cl)nc(-c3cnn(C)c3)c2C2CC2)n[nH]1` [Compound 118], with greater than 5000 nM; and `Cc1cc(Nc2nc(N(C)c3c(F)cc(S(C)(=O)=O)c(Cl)c3F)nc(-c3cnn(C)c3)c2C2CC2)n[nH]1` [Compound 120], with 19 nM. The figure for `Cc1cc(Nc2nc(N(C)c3c(F)cc(S(C)(=O)=O)cc3F)nc(-c3c[nH]nc3C)c2C2CC2)n[nH]1` [Compound 122] is 8 nM. Then `Cc1cc(Nc2nc(N(C)c3c(F)cc(S(C)(=O)=O)cc3F)nc(-c3cn(C)c(C)n3)c2C2CC2)n[nH]1` [Compound 124], with 2 nM.

Turning to `Cc1cc(Nc2nc(N(C)c3cc(F)c(S(C)(=O)=O)cc3F)nc(-c3cn(C)cn3)c2C2CC2)n[nH]1` [Compound 125, 5-cyclopropyl-N^2-(2,5-difluoro-4-(methylsulfonyl)phenyl)-N^2-methyl-6-(1-methyl-1H-imidazol-4-yl)-N^4-(5-methyl-1H-pyrazol-3-yl)pyrimidine-2,4-diamine], the 50% inhibitory concentration (IC50) was determined as 7 nM. The figure for `Cc1cc(Nc2nc(N(C)c3c(F)cc(S(C)(=O)=O)cc3F)nc(-c3cnn(C4CC4)c3)c2C2CC2)n[nH]1` [Compound 126] is 5 nM; for `Cc1cc(Nc2nc(N(C)c3c(F)cc(S(C)(=O)=O)cc3F)nc(-c3cnn(CF)c3)c2C2CC2)n[nH]1` [Compound 127] it is 6 nM.

In the case of `Cc1cc(Nc2nc(N(C)c3c(F)cc(S(C)(=O)=O)cc3F)nc(-c3cn(C(F)F)cn3)c2C2CC2)n[nH]1` [Compound 128], the IC50 was 6 nM.

One may read the IC50 as the midpoint of a concentration-inhibition curve. A higher IC50 goes with weaker potency.
